Results reported in paper PMC3602154 (PLoS ONE, 2013).
Like-named read-outs stand apart in the source and are kept apart here.

Assays:
D2 = D2 (Homo sapiens, UniProt P14416); experiment: PDSP radioligand binding, dopamine receptor D2
Excerpt: (§1) [17] and http://pdsp.med.unc.edu/UNC-CH%20Protocol%20Book.pdf.

H3 = H3 (Homo sapiens, UniProt Q9Y5N1); experiment: PDSP radioligand binding, histamine receptor H3
Excerpt: as §1

5-HT2C = target: T1, 5-HT2C (Homo sapiens, UniProt P28335); experiment: PDSP radioligand binding, serotonin receptor 5-HT2C
T1 sequence (P28335 33-458): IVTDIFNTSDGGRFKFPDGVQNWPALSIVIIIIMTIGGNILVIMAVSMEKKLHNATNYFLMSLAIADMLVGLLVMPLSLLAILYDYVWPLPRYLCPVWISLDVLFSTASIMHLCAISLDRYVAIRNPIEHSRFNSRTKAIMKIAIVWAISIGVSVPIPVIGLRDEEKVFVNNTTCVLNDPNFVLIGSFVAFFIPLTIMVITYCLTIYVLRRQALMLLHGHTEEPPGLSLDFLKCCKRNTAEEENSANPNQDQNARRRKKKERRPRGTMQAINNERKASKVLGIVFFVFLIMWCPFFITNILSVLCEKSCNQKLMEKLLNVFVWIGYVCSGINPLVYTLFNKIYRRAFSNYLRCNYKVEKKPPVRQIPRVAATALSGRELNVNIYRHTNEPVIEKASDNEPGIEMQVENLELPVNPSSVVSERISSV
Excerpt: as §1

M4 = target: T2, M4 (Homo sapiens, UniProt P08173); experiment: PDSP radioligand binding, muscarinic receptor M4
T2 sequence (P08173 1-479): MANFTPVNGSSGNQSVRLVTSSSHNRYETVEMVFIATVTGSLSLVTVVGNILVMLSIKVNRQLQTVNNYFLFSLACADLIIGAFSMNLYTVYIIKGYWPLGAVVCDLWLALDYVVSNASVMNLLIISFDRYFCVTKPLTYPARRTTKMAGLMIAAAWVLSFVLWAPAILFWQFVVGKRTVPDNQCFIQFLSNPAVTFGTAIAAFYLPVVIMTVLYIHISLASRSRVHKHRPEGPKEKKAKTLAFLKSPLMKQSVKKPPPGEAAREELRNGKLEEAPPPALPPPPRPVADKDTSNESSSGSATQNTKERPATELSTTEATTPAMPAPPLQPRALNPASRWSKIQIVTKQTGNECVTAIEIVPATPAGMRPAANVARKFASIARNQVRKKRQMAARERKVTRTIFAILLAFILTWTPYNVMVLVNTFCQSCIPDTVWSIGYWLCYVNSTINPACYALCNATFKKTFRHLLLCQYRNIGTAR
Excerpt: as §1

hDAT = hDAT (Homo sapiens, UniProt Q01959); experiment: PDSP radioligand binding, dopamine transporter
Excerpt: as §1

Beta3 = Beta3 (Homo sapiens, UniProt P13945); experiment: PDSP radioligand binding, adrenoceptor ß3
Excerpt: as §1

D5 = D5 (Homo sapiens, UniProt P21918); experiment: PDSP radioligand binding, dopamine receptor D5
Excerpt: as §1

5-HT2B = 5-HT2B (Homo sapiens, UniProt P41595); experiment: PDSP radioligand binding, serotonin receptor 5-HT2B
Excerpt: as §1

DOR = DOR (Homo sapiens, UniProt P41143); experiment: PDSP radioligand binding, opioid receptor DOR
Excerpt: as §1

5-ht5a = 5-ht5a (Homo sapiens, UniProt P47898); experiment: PDSP radioligand binding, serotonin receptor 5-HT5
Excerpt: as §1

Beta2 = Beta2 (Homo sapiens, UniProt P07550); experiment: PDSP radioligand binding, adrenoceptor ß2
Excerpt: as §1

CB2 = CB2 (Homo sapiens, UniProt P34972); experiment: PDSP radioligand binding, cannabinoid CB-2
Excerpt: as §1

5-HT7 = 5-HT7 (Homo sapiens, UniProt P34969); experiment: PDSP radioligand binding, serotonin receptor 5-HT7
Excerpt: as §1

[1] = target: NMDA Receptor (MK-801 binding site); experiment: PDSP radioligand binding, NMDA receptor
Excerpt: as §1

Alpha1A = target: T3, Alpha1A (Homo sapiens, UniProt P35348); experiment: PDSP radioligand binding, adrenoceptor α1A
T3 sequence (P35348 1-466): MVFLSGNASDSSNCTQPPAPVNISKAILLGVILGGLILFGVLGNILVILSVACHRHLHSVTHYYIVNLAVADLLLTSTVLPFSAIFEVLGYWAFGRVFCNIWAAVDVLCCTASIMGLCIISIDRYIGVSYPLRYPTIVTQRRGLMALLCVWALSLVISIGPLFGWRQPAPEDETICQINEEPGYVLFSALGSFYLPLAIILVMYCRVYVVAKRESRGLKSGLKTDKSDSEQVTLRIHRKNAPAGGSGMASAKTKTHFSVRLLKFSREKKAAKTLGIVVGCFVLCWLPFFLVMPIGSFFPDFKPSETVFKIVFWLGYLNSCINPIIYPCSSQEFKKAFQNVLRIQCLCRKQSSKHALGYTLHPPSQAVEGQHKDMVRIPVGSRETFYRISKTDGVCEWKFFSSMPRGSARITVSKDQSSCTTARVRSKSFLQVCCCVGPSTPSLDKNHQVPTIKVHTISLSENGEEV
Excerpt: as §1

5-HT3 = target: T4, 5-HT3 (Homo sapiens, UniProt P46098); experiment: PDSP radioligand binding, serotonin receptor 5-HT3
T4 sequence (P46098 24-478): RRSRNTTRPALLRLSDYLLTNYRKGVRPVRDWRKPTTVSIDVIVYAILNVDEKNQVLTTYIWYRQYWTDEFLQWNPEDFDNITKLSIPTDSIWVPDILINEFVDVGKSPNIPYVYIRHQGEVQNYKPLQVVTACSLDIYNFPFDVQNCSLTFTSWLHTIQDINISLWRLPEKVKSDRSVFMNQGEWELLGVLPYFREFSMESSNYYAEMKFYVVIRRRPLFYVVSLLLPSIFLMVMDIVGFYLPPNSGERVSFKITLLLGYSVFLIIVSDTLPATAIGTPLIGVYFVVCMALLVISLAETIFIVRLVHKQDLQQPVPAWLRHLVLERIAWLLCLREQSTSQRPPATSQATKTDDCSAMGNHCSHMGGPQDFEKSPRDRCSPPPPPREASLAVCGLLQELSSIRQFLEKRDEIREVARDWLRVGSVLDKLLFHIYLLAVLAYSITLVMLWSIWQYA
Excerpt: as §1

[2] = Table 2, read-out: NMDA (Ki) (converted)

Sequence of Beta3 (P13945 whole entry): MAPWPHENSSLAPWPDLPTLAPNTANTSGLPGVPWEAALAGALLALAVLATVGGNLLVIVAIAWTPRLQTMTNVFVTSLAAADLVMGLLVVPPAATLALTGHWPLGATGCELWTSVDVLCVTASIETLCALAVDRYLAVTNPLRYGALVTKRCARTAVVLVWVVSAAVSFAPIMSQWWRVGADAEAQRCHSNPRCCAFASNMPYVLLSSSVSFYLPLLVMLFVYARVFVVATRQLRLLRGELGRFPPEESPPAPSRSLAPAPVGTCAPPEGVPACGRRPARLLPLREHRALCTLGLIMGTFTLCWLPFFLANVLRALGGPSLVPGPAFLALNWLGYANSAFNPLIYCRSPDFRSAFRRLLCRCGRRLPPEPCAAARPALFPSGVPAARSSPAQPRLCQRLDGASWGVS
Sequence of DOR (P41143 whole entry): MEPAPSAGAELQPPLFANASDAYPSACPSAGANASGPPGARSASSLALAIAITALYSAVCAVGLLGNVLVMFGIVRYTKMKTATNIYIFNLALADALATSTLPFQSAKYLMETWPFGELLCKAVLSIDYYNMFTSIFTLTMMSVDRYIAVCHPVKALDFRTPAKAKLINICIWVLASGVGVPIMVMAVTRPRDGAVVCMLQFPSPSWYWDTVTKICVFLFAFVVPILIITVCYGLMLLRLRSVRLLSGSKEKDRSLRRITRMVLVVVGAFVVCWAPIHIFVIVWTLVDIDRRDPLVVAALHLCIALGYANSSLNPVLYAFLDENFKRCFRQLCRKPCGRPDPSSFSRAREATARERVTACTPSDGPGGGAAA
Sequence of Beta2 (P07550 whole entry): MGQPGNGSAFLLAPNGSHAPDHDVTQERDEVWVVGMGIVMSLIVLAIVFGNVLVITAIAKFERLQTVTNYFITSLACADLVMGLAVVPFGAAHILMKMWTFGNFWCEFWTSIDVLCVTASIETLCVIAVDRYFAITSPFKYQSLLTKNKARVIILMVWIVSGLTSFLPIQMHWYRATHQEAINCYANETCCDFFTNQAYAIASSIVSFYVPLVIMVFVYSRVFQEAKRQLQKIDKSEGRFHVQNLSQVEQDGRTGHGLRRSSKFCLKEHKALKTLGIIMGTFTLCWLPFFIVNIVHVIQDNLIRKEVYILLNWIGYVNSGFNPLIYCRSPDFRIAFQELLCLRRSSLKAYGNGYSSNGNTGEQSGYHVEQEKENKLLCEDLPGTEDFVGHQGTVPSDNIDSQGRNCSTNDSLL
Sequence of H3 (Q9Y5N1 whole entry): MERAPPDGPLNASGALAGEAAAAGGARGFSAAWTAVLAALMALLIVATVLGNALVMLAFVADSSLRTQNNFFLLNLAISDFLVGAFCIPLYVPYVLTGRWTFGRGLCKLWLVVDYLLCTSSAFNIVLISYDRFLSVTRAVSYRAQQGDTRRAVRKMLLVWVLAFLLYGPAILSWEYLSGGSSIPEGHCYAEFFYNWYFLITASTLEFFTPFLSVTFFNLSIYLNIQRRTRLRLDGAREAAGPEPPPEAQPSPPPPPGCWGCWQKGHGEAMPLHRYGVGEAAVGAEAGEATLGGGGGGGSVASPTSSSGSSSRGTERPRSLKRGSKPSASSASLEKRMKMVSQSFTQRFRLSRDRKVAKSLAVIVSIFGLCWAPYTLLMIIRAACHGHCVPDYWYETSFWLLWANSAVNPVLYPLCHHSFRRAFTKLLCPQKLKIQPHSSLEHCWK
Sequence of 5-ht5a (P47898 whole entry, species assumed): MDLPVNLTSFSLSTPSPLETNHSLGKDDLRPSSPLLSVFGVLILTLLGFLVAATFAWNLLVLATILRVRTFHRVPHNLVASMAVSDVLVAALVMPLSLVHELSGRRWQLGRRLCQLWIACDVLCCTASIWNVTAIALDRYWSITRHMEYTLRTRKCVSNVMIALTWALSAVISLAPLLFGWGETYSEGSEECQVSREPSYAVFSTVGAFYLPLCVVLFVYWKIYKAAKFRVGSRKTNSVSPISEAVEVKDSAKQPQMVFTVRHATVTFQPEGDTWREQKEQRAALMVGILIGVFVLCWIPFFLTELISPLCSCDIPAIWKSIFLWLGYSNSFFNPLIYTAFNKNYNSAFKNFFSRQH
Sequence of CB2 (P34972 whole entry, species assumed): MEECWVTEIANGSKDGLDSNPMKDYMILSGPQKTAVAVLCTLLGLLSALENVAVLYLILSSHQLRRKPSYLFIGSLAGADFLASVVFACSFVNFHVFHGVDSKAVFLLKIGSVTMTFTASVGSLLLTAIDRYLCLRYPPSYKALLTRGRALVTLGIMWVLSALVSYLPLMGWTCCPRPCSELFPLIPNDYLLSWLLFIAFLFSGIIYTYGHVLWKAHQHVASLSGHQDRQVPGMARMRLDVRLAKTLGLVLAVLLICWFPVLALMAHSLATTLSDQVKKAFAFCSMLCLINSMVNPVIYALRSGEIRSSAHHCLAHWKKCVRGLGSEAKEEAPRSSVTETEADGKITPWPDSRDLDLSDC
Sequence of 5-HT7 (P34969 whole entry, species assumed): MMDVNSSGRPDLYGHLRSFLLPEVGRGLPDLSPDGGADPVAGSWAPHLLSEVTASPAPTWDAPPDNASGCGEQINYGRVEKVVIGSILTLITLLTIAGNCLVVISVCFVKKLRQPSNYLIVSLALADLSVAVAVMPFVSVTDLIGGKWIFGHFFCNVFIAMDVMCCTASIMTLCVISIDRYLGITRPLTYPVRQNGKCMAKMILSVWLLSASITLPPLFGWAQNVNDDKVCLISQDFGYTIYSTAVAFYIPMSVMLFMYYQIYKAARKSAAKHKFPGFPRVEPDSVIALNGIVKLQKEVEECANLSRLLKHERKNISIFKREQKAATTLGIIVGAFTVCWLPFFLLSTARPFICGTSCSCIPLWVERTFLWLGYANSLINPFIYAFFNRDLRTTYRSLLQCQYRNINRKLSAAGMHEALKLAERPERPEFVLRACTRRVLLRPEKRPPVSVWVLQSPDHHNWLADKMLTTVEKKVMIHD
Sequence of hDAT (Q01959 whole entry): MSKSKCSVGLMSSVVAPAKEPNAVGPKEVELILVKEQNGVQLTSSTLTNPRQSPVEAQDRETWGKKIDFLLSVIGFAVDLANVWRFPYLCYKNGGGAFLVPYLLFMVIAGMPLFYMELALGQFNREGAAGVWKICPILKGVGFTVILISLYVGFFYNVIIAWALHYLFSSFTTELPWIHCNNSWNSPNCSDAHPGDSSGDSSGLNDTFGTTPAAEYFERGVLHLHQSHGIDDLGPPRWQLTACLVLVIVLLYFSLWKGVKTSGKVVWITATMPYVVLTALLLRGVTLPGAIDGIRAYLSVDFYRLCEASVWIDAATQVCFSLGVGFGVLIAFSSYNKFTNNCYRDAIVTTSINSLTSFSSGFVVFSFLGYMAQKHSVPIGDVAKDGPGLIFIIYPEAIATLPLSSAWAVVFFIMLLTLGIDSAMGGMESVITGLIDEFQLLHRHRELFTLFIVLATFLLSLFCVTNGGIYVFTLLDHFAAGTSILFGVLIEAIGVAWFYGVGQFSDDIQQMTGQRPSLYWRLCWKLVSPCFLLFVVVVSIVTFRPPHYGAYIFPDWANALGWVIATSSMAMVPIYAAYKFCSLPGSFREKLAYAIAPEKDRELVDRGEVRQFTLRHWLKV
Sequence of D2 (P14416 whole entry): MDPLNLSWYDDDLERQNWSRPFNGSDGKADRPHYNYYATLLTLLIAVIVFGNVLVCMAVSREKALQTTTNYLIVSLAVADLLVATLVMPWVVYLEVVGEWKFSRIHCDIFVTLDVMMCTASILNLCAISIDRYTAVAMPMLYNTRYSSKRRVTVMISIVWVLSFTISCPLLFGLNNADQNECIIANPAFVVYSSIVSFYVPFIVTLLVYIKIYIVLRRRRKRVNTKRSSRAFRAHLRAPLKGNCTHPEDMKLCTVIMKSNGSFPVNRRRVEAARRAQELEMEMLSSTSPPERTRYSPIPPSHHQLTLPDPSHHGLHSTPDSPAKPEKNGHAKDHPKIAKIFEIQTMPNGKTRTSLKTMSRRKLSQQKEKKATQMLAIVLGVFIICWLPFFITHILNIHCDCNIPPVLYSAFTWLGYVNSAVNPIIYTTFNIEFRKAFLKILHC
Sequence of D5 (P21918 whole entry): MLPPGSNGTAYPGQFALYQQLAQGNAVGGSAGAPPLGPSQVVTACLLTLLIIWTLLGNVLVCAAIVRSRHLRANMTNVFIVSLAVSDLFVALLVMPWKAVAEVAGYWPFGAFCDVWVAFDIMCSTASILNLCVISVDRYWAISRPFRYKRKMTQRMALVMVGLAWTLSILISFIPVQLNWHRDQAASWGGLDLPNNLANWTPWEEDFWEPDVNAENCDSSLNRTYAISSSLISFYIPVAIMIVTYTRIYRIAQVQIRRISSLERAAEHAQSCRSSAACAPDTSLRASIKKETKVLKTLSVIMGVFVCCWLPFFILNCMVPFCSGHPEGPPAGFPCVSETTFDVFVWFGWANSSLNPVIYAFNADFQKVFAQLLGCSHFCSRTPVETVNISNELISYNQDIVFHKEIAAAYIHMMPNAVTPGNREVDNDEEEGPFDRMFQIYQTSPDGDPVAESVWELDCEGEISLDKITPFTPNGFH
Sequence of 5-HT2B (P41595 whole entry, species assumed): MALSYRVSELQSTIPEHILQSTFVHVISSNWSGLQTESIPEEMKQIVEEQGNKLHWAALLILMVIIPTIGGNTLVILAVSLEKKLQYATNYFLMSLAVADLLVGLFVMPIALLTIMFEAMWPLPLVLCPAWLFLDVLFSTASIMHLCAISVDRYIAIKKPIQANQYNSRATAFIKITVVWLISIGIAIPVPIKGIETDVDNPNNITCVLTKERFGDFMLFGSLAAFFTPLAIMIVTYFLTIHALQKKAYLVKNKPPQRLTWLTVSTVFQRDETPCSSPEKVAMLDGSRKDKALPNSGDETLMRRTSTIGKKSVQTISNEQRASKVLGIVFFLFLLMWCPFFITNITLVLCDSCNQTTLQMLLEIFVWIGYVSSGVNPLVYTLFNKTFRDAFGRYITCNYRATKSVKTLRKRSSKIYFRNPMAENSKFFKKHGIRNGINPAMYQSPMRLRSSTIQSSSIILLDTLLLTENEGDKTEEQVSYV

SMILES | Ki (D2) | Ki (H3) | Ki (5-HT2C) | Ki (M4) | Ki (hDAT) | Ki (Beta3) | Ki (D5) | Ki (5-HT2B) | Ki (DOR) | Ki (5-ht5a) | Ki (Beta2) | Ki (CB2) | Ki (5-HT7) | Ki ([1]; Figure 3, N = 3 separate determinations, read-out: Ki in NMDA receptor assay) | Ki ([1]; Table S1, unit inferred, read-out: Ki NMDA) | Ki (Alpha1A) | Ki (5-HT3) | NMDA pKi +/− SD ([1]; Table 2) | Ki [1, 2]
CCNC1(c2cccc(OC)c2)CCCCC1=O (racemic) [Methoxetamine, (RS)-2-(ethylamino)-2-(3-methoxyphenyl)cyclohexanone] | > 10 µM | > 10 µM | > 10 µM | > 10 µM | > 10 µM | > 10 µM | > 10 µM | > 10 µM | > 10 µM | > 10 µM | > 10 µM | > 10 µM | > 10 µM | 0.337 µM | 0.338 µM | > 10 µM | > 10 µM |  | 
COc1cccc(C2(N3CCCCC3)CCCCC2)c1 [3-MeO-PCP, 1-[1-(3-methoxyphenyl)cyclohexyl]piperidine] | > 10 µM | > 10 µM | > 10 µM | > 10 µM | 0.743 µM | > 10 µM | > 10 µM | > 10 µM | > 10 µM | > 10 µM | > 10 µM | > 10 µM | > 10 µM |  |  | > 10 µM | > 10 µM | 7.69±0.08 | 0.02 µM
COc1ccc(C2(N3CCCCC3)CCCCC2)cc1 [4-MeO-PCP, 1-[1-(4-methoxyphenyl)cyclohexyl]piperidine] | > 10 µM | > 10 µM | > 10 µM | > 10 µM | > 10 µM | > 10 µM | > 10 µM | > 10 µM | > 10 µM | > 10 µM | > 10 µM | > 10 µM | > 10 µM |  |  | > 10 µM | > 10 µM | 6.39±0.06 | 0.404 µM
